Columns and labels:
[1] = tested on: lettuce; test: Effect on development of sprouts, agar medium in Petri dishes; assay type: in vivo; parameters: Germination capacity, lettuce: unit not given here; details: for Plant parts length, lettuce root / Plant parts length, lettuce stalk: 7 days
Procedure: (§1) The effect of the preparation was studied for 7 days under laboratory conditions on lettuce and oats plants.
(§2) The standards used in the tests were chlorocholine chloride whose structure is close to the studied chemical compound and heteroauxin phytohormone. Experiments on lettuce and oats growing in the presence of the above substances at a concentration of from 0.1 to 0.00001 wt.% were performed in Petri dishes with the use of agar medium as a substrate.
(§3) The seeds were placed into Petri dishes on solidified agar containing the test substance in the concentration indicated. The seeds germinated in a thermostat for 3 days at a temperature of from 22° to 24° C. Petri dishes with the sprouts were then placed for further growth into an exhausting hood with illumination for 4 days, whereafter the length of the roots, stalks and leaves of the sprouts was measured.

[2] = tested on: oats; test: as above; assay type: in vivo; parameters: Germination capacity, oats: unit not given here; details: for Plant parts length, oats leaf / Plant parts length, oats root: 7 days
Procedure: as §1, §2, §3

[3] = tested on: Rats; details: cited from earlier work
[4] = tested on: Escherichia coli; test: Antimicrobial activity, series dilutions in liquid nutrient media; assay type: cell-based; details: 10 strains
Procedure: (§4) Antimicrobial properties of said preparation were investigated by a classical method of series dilutions in standard liquid nutrient media.
(§5) The activity of the above preparation was tested by its action on staphylococci, Escherichia coli, and intestinal group microorganisms.

[5] = tested on: Proteus morgani; test: as above; assay type: cell-based; details: 4 strains
Procedure: as §4, §5

[6] = tested on: Proteus vulgaris; test: as above; assay type: cell-based; details: 2 strains
Procedure: as §4, §5

[7] = tested on: Salmonella sp.; test: as above; assay type: cell-based; details: 7 strains
Procedure: as §4, §5

[8] = tested on: Shigella sonnei; test: as above; assay type: cell-based; details: 7 strains
Procedure: as §4, §5

[9] = tested on: Staphylococcus albus; test: as above; assay type: cell-based; details: 20 strains
Procedure: as §4, §5

[10] = tested on: Staphylococcus aureus; test: as above; assay type: cell-based; details: 20 strains
Procedure: as §4, §5

[11] = Acute toxicity test; assay type: in vivo, white mice; details: mouse, in vivo, mice, 24 hours
Procedure: (§6) Bis-(N,N-dimethyl-N-carbodecyloxymethyl-N-ethyleneammonium)-sulphide dichloride was tested for toxicity in an acute test on rats of both sexes with an average mass of 200 to 250 g and on white mice of both sexes with an average mass of 22 to 25 g with enteral and intraperitoneal administrations. Aqueous solutions of the above preparation (from 10 to 5000 mg per kg of animal weight) were used for enteral and intraperitoneal administration. Each dosage was tried on five animals. Animal death rate was registered 24 hours after the administration of the above solutions.

[12] = tested on: Mice; test: Acute toxicity test; assay type: in vivo, white mice; details: for LD100: mice, 24 hours
Procedure: as §6

[13] = Acute toxicity test; assay type: in vivo; details: rat, in vivo, rats
Procedure: as §6

[14] = tested on: Rats; test: Acute toxicity test; assay type: in vivo; details: 24 hours
Procedure: as §6

[15] = tested on: calves; test: Chronic toxicity test, intravenous; assay type: in vivo; details: 10 mg per kg daily for 30 days
Excerpt: Test group consisted of 10 calves, the other 10 calves to which the above preparation was not prescribed making up a control group. The calves of both groups were kept in the same conditions. General state and behaviour of the calves, rate of gain were controlled and peripheric blood counts (hemoglobin, erythrocytes, leucocytes, thrombocytes, differential blood count) were made daily during the test. To determine the functional state of liver, kidneys, and pancreas, certain biochemical characteristics of the urine (protein, sugar, and biliary pigments content) and blood (sugar, cholesterol, bilirubin, urea, alkaline phosphatase, and chlorides content) were studied.
At the end of the test period the test group animals were killed and their internal organs were studied by macro- and microscopic techniques.

[16] = Stability of aqueous solutions / retention of antimicrobial activity; assay type: physicochemical
Excerpt: Aqueous solutions of the preparation were stable.

[17] = Solubility; assay type: physicochemical
[18] = tested on: Rats; test: Toxicity (LD50) compared with chlorocholine chloride; assay type: in vivo; details: versus chlorocholine chloride
[19] = tested on: staphylococci, Escherichia coli, and intestinal group microorganisms; test: Antimicrobial action, overall; assay type: cell-based; details: analysis of the test results
Procedure: as §4, §5

[20] = Treatment of inflammatory diseases of the middle ear; assay type: in vivo, men; details: for Recovery with comparator solutions: in a great number of cases; for Irrigations of the tympanic cavity required, relative to the preparation: solutions, for the same purpose
Procedure: was tested in treating inflammatory diseases of the middle ear in men: acute otitis and antritis media purulenta, chronic purulent mesotympanitis, and chronic purulent epitympanitis.
The treatment was applied to 65 patients.
The treatment procedure consisted in thorough and copious irrigation (with the help of Hartmann's cannula or blunt-ended needle) of the middle ear, attic, and Eustachian tube for maximum removal of purulent exudate and cholesteatoma masses.

[21] = read-out: Average bactericidal concentration
[22] = read-out: Average bacteriostatic concentration

C[N+](C)(C)CCCl.[Cl-] [Chlorocholine chloride]
Germination capacity, lettuce ([1]; 0.0001 wt. %): 98 | Plant parts length, lettuce root ([1]; 0.0001 wt. %): 104 | Plant parts length, lettuce stalk ([1]; 0.0001 wt. %): 98 | Germination capacity, lettuce ([1]; 0.001 wt. %): 94 | Plant parts length, lettuce root ([1]; 0.001 wt. %): 102 | Plant parts length, lettuce stalk ([1]; 0.001 wt. %): 110 | Germination capacity, lettuce ([1]; 0.01 wt. %): 94 | Inhibition of root development ([1]; 0.01 wt. %): does not inhibit root development | Plant parts length, lettuce root ([1]; 0.01 wt. %): 101 | Plant parts length, lettuce stalk ([1]; 0.01 wt. %): 99 | Germination capacity, oats ([2]; 0.0001 wt. %): 91 | Plant parts length, oats leaf ([2]; 0.0001 wt. %): 94 | Plant parts length, oats root ([2]; 0.0001 wt. %): 102 | Germination capacity, oats ([2]; 0.001 wt. %): 99 | Plant parts length, oats leaf ([2]; 0.001 wt. %): 97 | Plant parts length, oats root ([2]; 0.001 wt. %): 92 | Germination capacity, oats ([2]; 0.01 wt. %): 98 | Plant parts length, oats leaf ([2]; 0.01 wt. %): 96 | Plant parts length, oats root ([2]; 0.01 wt. %): 94 | LD50 [3]: 250 mg/kg

O=C(O)Cc1c[nH]c2ccccc12 [Heteroauxine]
Germination capacity, lettuce ([1]; 0.0001 wt. %): 81 | Plant parts length, lettuce root ([1]; 0.0001 wt. %): 88 | Plant parts length, lettuce stalk ([1]; 0.0001 wt. %): 92 | Germination capacity, lettuce ([1]; 0.001 wt. %): 55 | Plant parts length, lettuce root ([1]; 0.001 wt. %): 27 | Plant parts length, lettuce stalk ([1]; 0.001 wt. %): 24 | Germination capacity, lettuce ([1]; 0.01 wt. %): 0 | Plant parts length, lettuce root ([1]; 0.01 wt. %): 0 | Plant parts length, lettuce stalk ([1]; 0.01 wt. %): 0 | Germination capacity, oats ([2]; 0.0001 wt. %): 100 | Plant parts length, oats leaf ([2]; 0.0001 wt. %): 92 | Plant parts length, oats root ([2]; 0.0001 wt. %): 88 | Germination capacity, oats ([2]; 0.001 wt. %): 102 | Plant parts length, oats leaf ([2]; 0.001 wt. %): 67 | Plant parts length, oats root ([2]; 0.001 wt. %): 28 | Germination capacity, oats ([2]; 0.01 wt. %): 84 | Plant parts length, oats leaf ([2]; 0.01 wt. %): 35 | Plant parts length, oats root ([2]; 0.01 wt. %): 19

CCCCCCCCCCOC(=O)C[N+](C)(C)CCSCC[N+](C)(C)CC(=O)OCCCCCCCCCC [bis-(N,N-dimethyl-N-carbodecyloxymethyl-N-ethyleneammonium)-sulphide dichloride]
MBC [4, 21]: 6.4 µg/mL | MIC [4, 22]: 3.9 µg/mL | MBC [5, 21]: 50.7 µg/mL | MIC [5, 22]: 50.7 µg/mL | MBC [6, 21]: 62.5 µg/mL | MIC [6, 22]: 62.5 µg/mL | MBC [7, 21]: 31.2 µg/mL | MIC [7, 22]: 31.2 µg/mL | MBC [8, 21]: 28.4 µg/mL | MIC [8, 22]: 5.85 µg/mL | MBC [9, 21]: 1.67 µg/mL | MIC [9, 22]: 0.6 µg/mL | MBC [10, 21]: 2.63 µg/mL | MIC [10, 22]: 0.76 µg/mL | LD50 at 24 h ([11]; ip, intraperitoneal): 54.1 mg/kg | LD50 at 24 h ([11]; po, enteral): 1220 mg/kg | Toxicity group, overall ([12]; analysis of the test results (mice, rats, calves)): low-toxic | LD100 ([12]; enteral): 2500 mg/kg | LD100 ([12]; intraperitoneal): 70.0 mg/kg | LD50 at 24 h ([13]; ip, intraperitoneal): 67.7 mg/kg | LD50 at 24 h ([13]; po, enteral): 2660 mg/kg | LD100 ([14]; enteral): 3500 mg/kg | LD100 ([14]; intraperitoneal): 80.0 mg/kg | Pathologic changes at autopsy, macro- and microscopic study [15]: no pathologic changes | Changes in the calves under chronic test conditions ([15]; 0.2 wt.% in sodium chloride solution): did not cause significant changes | Activity after storage of solutions ([16]; 1% and 0.1% solutions, 6 months): did not lose its activity | Stability of aqueous solutions ([16]; aqueous solutions): stable | Antimicrobial activity as a function of pH ([16]; pH 5 to 8): remains unchanged | Antimicrobial activity after autoclaving ([16]; single and double autoclaving, 60 minutes at 2.5 atm): did not alter the antimicrobial activity | Solubility in diethyl ether ([17]; diethyl ether): insoluble | Solubility in lower alcohols ([17]; lower alcohols): soluble | Solubility in water ([17]; water): soluble | Germination capacity, lettuce ([1]; 0.00001 wt. %): 86 | Plant parts length, lettuce root ([1]; 0.00001 wt. %): 91 | Plant parts length, lettuce stalk ([1]; 0.00001 wt. %): 91 | Germination capacity, lettuce ([1]; 0.0001 wt. %): 89 | Plant parts length, lettuce root ([1]; 0.0001 wt. %): 96 | Plant parts length, lettuce stalk ([1]; 0.0001 wt. %): 99 | Germination capacity, lettuce ([1]; 0.001 wt. %): 100 | Plant parts length, lettuce root ([1]; 0.001 wt. %): 88 | Plant parts length, lettuce stalk ([1]; 0.001 wt. %): 91 | Germination capacity, lettuce ([1]; 0.01 wt. %): 34 | Plant parts length, lettuce root ([1]; 0.01 wt. %): 15 | Plant parts length, lettuce stalk ([1]; 0.01 wt. %): 38 | Germination capacity, lettuce ([1]; 0.1 wt. %): 0 | Plant parts length, lettuce root ([1]; 0.1 wt. %): 2 | Plant parts length, lettuce stalk ([1]; 0.1 wt. %): 0 | Herbicidal action ([1]; 0.1 wt.%, dicotyledonous plants): selective herbicide | Phytoncidal action ([1]; lettuce (dicotyledonous)): more phytoncidal | Germination capacity, oats ([2]; 0.00001 wt. %): 91 | Plant parts length, oats leaf ([2]; 0.00001 wt. %): 105 | Plant parts length, oats root ([2]; 0.00001 wt. %): 100 | Germination capacity, oats ([2]; 0.0001 wt. %): 87 | Plant parts length, oats leaf ([2]; 0.0001 wt. %): 99 | Plant parts length, oats root ([2]; 0.0001 wt. %): 86 | Germination capacity, oats ([2]; 0.001 wt. %): 87 | Plant parts length, oats leaf ([2]; 0.001 wt. %): 96 | Plant parts length, oats root ([2]; 0.001 wt. %): 88 | Germination capacity, oats ([2]; 0.01 wt. %): 86 | Plant parts length, oats leaf ([2]; 0.01 wt. %): 93 | Plant parts length, oats root ([2]; 0.01 wt. %): 54 | Germination capacity, oats ([2]; 0.1 wt. %): 87 | Plant parts length, oats leaf ([2]; 0.1 wt. %): 55 | Plant parts length, oats root ([2]; 0.1 wt. %): 6 | Inhibition of growth of roots versus leaves ([2]; oats (monocotyledonous)): more strongly inhibits the growth of roots than that of leaves | Toxicity compared with chlorocholine chloride [18]: much lower | Antimicrobial action, overall [19]: strong antimicrobial action

CC1(C)S[C@@H]2[C@H](NC(=O)Cc3ccccc3)C(=O)N2[C@H]1C(=O)O [penicillin]
Recovery with comparator solutions [20]: did not result in recovery | Irrigations of the tympanic cavity required, relative to the preparation [20]: twice as many or even more

[H]/N=C(/N)N[C@H]1[C@H](O)[C@@H](O)[C@H](O[C@@H]2O[C@@H](C)[C@](O)(C=O)[C@H]2O[C@@H]2O[C@@H](CO)[C@H](O)[C@@H](O)[C@@H]2NC)[C@@H](N/C(N)=N\[H])[C@@H]1O [streptomycin]
Recovery with comparator solutions [20]: did not result in recovery | Irrigations of the tympanic cavity required, relative to the preparation [20]: twice as many or even more

— patent US4557754A, “Bis-(N,N-dimethyl-N-carbodecyloxymethyl-N-ethylene-ammonium)-sulphide dichloride and use thereof” (priority 1980, dated 1985)
